Test results reported in patent publication US5340802A, “Peptide analog type-B CCK receptor ligands” (Abbott Laboratories, priority 1993, dated 1994).

How the values were obtained:
[1] = target: T1, Type-B CCK receptors (Cavia porcellus, UniProt H0VZC5); assay: Radioligand binding ([125I]BH-CCK-8) in guinea pig cerebral cortical membrane preparations; details: cortical membranes, 30° C., 150 minutes, read-out: IC50 (nM) cortex (Type B)
T1 construct: Cortical and pancreatic membranes were prepared as described; from tissue; host or cells: guinea pig cerebral cortex membranes
T1 sequence (H0VZC5 1-426): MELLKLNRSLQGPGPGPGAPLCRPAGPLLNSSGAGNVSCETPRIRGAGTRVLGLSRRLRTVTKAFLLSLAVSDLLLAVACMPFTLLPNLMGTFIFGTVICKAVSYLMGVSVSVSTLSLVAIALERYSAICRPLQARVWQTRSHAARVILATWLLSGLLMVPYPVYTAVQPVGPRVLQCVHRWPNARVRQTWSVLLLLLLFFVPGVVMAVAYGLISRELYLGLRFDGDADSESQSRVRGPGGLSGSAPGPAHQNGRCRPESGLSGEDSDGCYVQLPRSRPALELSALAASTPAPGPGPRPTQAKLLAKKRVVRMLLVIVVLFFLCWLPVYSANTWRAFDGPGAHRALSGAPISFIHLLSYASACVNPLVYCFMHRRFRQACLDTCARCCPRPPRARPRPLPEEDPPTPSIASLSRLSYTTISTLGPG
Method: CCK-8 (Asp-Tyr(SO3 H)-Met-Gly-Trp-Met-Asp-Phe-NH2), bestatin and phosphoramidon were purchased from Peptide International (Louisville, Ky.). EGTA, HEPES, BSA were purchased from Sigma Chemical Co. (St. Louis, Mo.). […] Male guinea pigs, 250 to 325 g, were obtained from Scientific Small Animal Laboratory and Farm (Arlington Heights, Ill.). Collagenase, code CLSPA, was purchased from Worthington (Frehold, N.J.).
Cortical and pancreatic membranes were prepared as described (Lin and Miller; J. Pharmacol. Exp. Ther., 1985, 232:775-780). In brief, pancreas and cortex were removed and rinsed with ice-cold saline. Visible fat and connective tissues were removed from the pancreas. Tissues were weighed and homogenized in approximately 25 mL of ice-cold 50 mM Tris-HCl buffer, pH 7.4 at 4° C. with a Brinkman Polytron for 30 seconds, setting 7. The homogenates were centrifuged for 10 minutes at 1075×g and the pellet was discarded. The supernantants were saved and centrifuged at 38,730×g for 20 minutes. The resultant pellets were rehomogenized in 25 mL of 50 mM Tris-HCl buffer with a Teflon-glass homogenizer, 5 up and down strokes. The homogenates were centrifuged again at 38,730×g for 20 minutes. The pellets were then resuspended in 20 mM HEPES, containing 1 mM EGTA, 118 mM NaCl, 4.7 mM KCl, 5 mM MgCl2, 100 μ M bestatin, 3 μM phosphoramidon, pH 7.4 at 22° C. with a Teflon-glass homogenizer, 15 up and down strokes. The resuspension volume used for the cortex was 15 mL per g of original wet weight and 60 mL per g for pancreas.
To 1 mL Skatron polystyrene tubes were added 25 uL of test compounds, 25 uL of [^125 I]BH-CCK8 and 200 uL of membrane suspension. The final BSA concentration was 0.1%. The cortical tissues (source of Type-B CCK receptors) were incubated at 30° C. for 150 minutes and pancreatic tissues (source of Type-A CCK receptors) were incubated at 37° C. for 150 minutes. Incubations were terminated by filtration using a Skatron Cell Harvester and SS32 microfiber filter mats. […] IC50 values were determined from the Hill analysis.

[2] = target: T2, Type-A CCK receptors (Cavia porcellus, UniProt Q63931); assay: Radioligand binding ([125I]BH-CCK-8) in guinea pig pancreatic membrane preparations; details: pancreatic membranes, 37° C., 150 minutes, read-out: IC50 (nM) Pancreas (Type A)
T2 construct: Cortical and pancreatic membranes were prepared as described; from tissue; host or cells: guinea pig pancreas membranes
T2 sequence (Q63931 1-430): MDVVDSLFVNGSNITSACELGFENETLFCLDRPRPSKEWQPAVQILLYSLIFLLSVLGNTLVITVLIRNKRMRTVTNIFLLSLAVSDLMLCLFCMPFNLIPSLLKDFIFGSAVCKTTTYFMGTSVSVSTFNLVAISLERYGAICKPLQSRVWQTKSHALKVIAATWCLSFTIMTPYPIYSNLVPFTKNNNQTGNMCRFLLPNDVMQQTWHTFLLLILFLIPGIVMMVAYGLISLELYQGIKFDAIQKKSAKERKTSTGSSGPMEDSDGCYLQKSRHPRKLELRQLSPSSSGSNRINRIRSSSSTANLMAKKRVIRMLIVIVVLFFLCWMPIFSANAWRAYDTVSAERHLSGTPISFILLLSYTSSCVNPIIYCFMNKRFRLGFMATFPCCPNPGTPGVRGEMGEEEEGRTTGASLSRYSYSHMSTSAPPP

SMILES | IC50 [1] | IC50 [2]
CC(C)C[C@H](NC(=O)[C@@H]1Cc2c[nH]c3cccc(c23)CC(=O)N1)C(=O)N[C@@H](CC(=O)O)C(=O)N/C(=C\c1ccccc1)C(N)=O [Example 14, Ctp-Leu-Asp-(dehydro)Phe-NH2] | 16 nM | > 10000 nM
CCC[C@@H]1CCN(C(=O)[C@@H]2Cc3c[nH]c4cccc(c34)CC(=O)N2)[C@@H]1C(=O)N[C@@H](CC(=O)O)C(=O)N[C@@H](Cc1ccccc1)C(N)=O [Example 35, Ctp-Cpp-Asp-Phe-NH2] | 18 nM | 4770 nM
NC(=O)[C@H](Cc1ccccc1)NC(=O)[C@H](CC(=O)O)NC(=O)[C@@H]1CSCCN1C(=O)[C@@H]1Cc2c[nH]c3cccc(c23)CC(=O)N1 [Example 42, Ctp-(1,4-thiazane-3-carbonyl)-Asp-Phe-NH2] | 8.4 nM | 1300 nM
NC(=O)[C@H](Cc1ccccc1)NC(=O)[C@H](CC(=O)O)NC(=O)[C@@H]1CCCCN1C(=O)[C@@H]1Cc2c[nH]c3cccc(c23)CC(=O)N1 [Example 43, Ctp-Pip-Asp-Phe-NH2] | 29.9 nM | 11500 nM
